This assay deals with BDF1 mice, colon carcinoma 38 sc, T/C %. Briefly: NCI In Vivo Anticancer Drug Screen. Data for tumor model Colon Carcinoma 38 (subcutaneous) in B6D2F1 (BDF1) mice. Particulars: endpoint: median tumor weight (est.), higher = larger tumour. As for the experimental part: The antitumor activity of compounds was measured in mice bearing transplantable tumors. Survival or tumor size were measured and the results are expressed as the measurement made in the treated group (T) divided by the measurement made in the vehicle treated control group (C). The tumor model used in this assay is Colon Carcinoma 38 (subcutaneous) in B6D2F1 (BDF1) mice

Setting [1] is: dose: 1.0 mg/kg/injection, schedule: Q07DX002 (ip), vehicle: saline.
The mark [2] stands for this setting: dose: 6.25 mg/kg/injection, schedule: Q07DX002 (ip), vehicle: saline.
The mark [3] stands for this setting: dose: 12.5 mg/kg/injection, schedule: Q07DX002 (ip), vehicle: saline.
[4] abbreviates: dose: 25.0 mg/kg/injection, schedule: Q07DX002 (ip), vehicle: saline.

Where “and” joins values, the source holds several entries; their conditions need not be identical. Equal entries are not always repeated. Inconclusive results are not listed.

With `CC[C@](C)(O)C(=O)O[C@H]1C(=O)O[C@@H]2C[C@H]3C(C)=CC(=O)[C@@H](O)[C@]3(C)[C@H]3[C@@]4(O)OC[C@]32[C@@H]1[C@@H](C)[C@H]4O`, the T/C is, setting by setting: (dose: 0.13 mg/kg/injection, schedule: Q07DX002 (ip), vehicle: saline with Tween-80) 91 % of control; (dose: 0.25 mg/kg/injection, schedule: Q07DX002 (ip), vehicle: saline with Tween-80) 90 % of control; (dose: 0.5 mg/kg/injection, schedule: Q07DX002 (ip), vehicle: saline with Tween-80) 60 % of control; (dose: 1.0 mg/kg/injection, schedule: Q07DX002 (ip), vehicle: saline with Tween-80) 62 % of control; (dose: 2.0 mg/kg/injection, schedule: Q07DX002 (ip), vehicle: saline with Tween-80) 47 % of control.
For `Nc1ccc(S(=O)(=O)Nc2cnc3c(Cl)cccc3n2)cc1`, the T/C (dose: 250.0 mg/kg/injection, schedule: Q07DX002 (ip), vehicle: DMSO) is 82 % of control.
As to `CC(C)[NH-].CC(C)[NH-].O.O.[Cl][Pt+2][Cl]`, the T/C (dose: 3.12 mg/kg/injection, schedule: Q07DX003 (ip), vehicle: dextrose) was 90 % of control; the T/C (dose: 6.25 mg/kg/injection, schedule: Q07DX002 (ip), vehicle: dextrose) is 41 % of control; the T/C (dose: 12.5 mg/kg/injection, schedule: Q07DX002 (ip), vehicle: dextrose) is 81 % of control; the T/C (dose: 25.0 mg/kg/injection, schedule: Q07DX002 (ip), vehicle: dextrose) is 39 % of control; the T/C (dose: 25.0 mg/kg/injection, schedule: Q07DX003 (ip), vehicle: dextrose) is 52 % of control.
Regarding `CCN1/C(=C/C=C/C=C/c2sc3ccccc3[n+]2CC)Sc2ccccc21`, the T/C runs as follows: (dose: 0.03 mg/kg/injection, schedule: Q07DX002 (ip), vehicle: saline) 151 % of control; (dose: 0.03 mg/kg/injection, schedule: Q07DX002 (ip), vehicle: suspension in saline) 59 % of control; (dose: 0.06 mg/kg/injection, schedule: Q07DX002 (ip), vehicle: saline) 167 % of control; (dose: 0.06 mg/kg/injection, schedule: Q07DX002 (ip), vehicle: suspension in saline) 104 % of control; (dose: 0.12 mg/kg/injection, schedule: Q07DX002 (ip), vehicle: saline) 122 % of control; (dose: 0.12 mg/kg/injection, schedule: Q07DX002 (ip), vehicle: suspension in saline) 100 % of control. The T/C is 104 % of control (dose: 0.25 mg/kg/injection, schedule: Q07DX002 (ip), vehicle: suspension in saline); 162 % of control (dose: 0.5 mg/kg/injection, schedule: Q07DX002 (ip), vehicle: saline); 109 % of control (dose: 0.5 mg/kg/injection, schedule: Q07DX002 (ip), vehicle: suspension in saline); 197 % of control under setting [1].
With `Nc1n[n+](-c2ccccc2)no1`, the T/C is 99 % of control and 108 % of control (dose: 3.12 mg/kg/injection, schedule: Q07DX002 (ip), vehicle: water); 85 % of control and 86 % of control and 98 % of control (dose: 6.25 mg/kg/injection, schedule: Q07DX002 (ip), vehicle: water); 70 % of control and 74 % of control and 94 % of control (dose: 50.0 mg/kg/injection, schedule: Q07DX002 (ip), vehicle: water).
Regarding `OC(C1CO1)C(O)C1CO1` (configuration not stated), the T/C by setting is: under setting [1], 83 % of control; (dose: 1.0 mg/kg/injection, schedule: Q07DX003 (ip), vehicle: saline) 71 % of control and 81 % of control; (dose: 2.0 mg/kg/injection, schedule: Q07DX002 (ip), vehicle: saline) 114 % of control; (dose: 2.0 mg/kg/injection, schedule: Q07DX003 (ip), vehicle: saline) 70 % of control and 86 % of control; (dose: 4.0 mg/kg/injection, schedule: Q07DX003 (ip), vehicle: saline) 5 % of control and 30 % of control; (dose: 8.0 mg/kg/injection, schedule: Q07DX002 (ip), vehicle: saline) 58 % of control. Moreover, the T/C (dose: 8.0 mg/kg/injection, schedule: Q07DX003 (ip), vehicle: saline) is 8 % of control and 20 % of control.
Consider `Nc1nc2n[nH]nc2c(=O)[nH]1`, for which the T/C by setting is: (dose: 50.0 mg/kg/injection, schedule: Q07DX002 (ip), vehicle: suspension in saline) 64 % of control; (dose: 100.0 mg/kg/injection, schedule: Q07DX002 (ip), vehicle: suspension in saline) 80 % of control; (dose: 200.0 mg/kg/injection, schedule: Q07DX002 (ip), vehicle: suspension in saline) 57 % of control; (dose: 400.0 mg/kg/injection, schedule: Q07DX002 (ip), vehicle: suspension in saline) 51 % of control.
Regarding `Cn1c(=O)c2ncnnc2n(C)c1=O`, the T/C by setting is: (dose: 3.12 mg/kg/injection, schedule: Q07DX002 (ip), vehicle: Klucel (hydroxypropylcellulose) (HPC)) 75 % of control; (dose: 6.25 mg/kg/injection, schedule: Q07DX002 (ip), vehicle: Klucel (hydroxypropylcellulose) (HPC)) 84 % of control; (dose: 12.5 mg/kg/injection, schedule: Q07DX002 (ip), vehicle: Klucel (hydroxypropylcellulose) (HPC)) 78 % of control; (dose: 25.0 mg/kg/injection, schedule: Q07DX002 (ip), vehicle: Klucel (hydroxypropylcellulose) (HPC)) 62 % of control.
Consider `ClC1=C(Cl)C2(Cl)C3C(Cl)C(Cl)CC3C1(Cl)C2(Cl)Cl` (configuration not stated), for which the T/C runs as follows: (dose: 9.5 mg/kg/injection, schedule: Q07DX002 (ip), vehicle: saline with Tween-80) 103 % of control; (dose: 19.0 mg/kg/injection, schedule: Q07DX002 (ip), vehicle: saline with Tween-80) 114 % of control; (dose: 28.0 mg/kg/injection, schedule: Q07DX002 (ip), vehicle: saline + Tween-80 + alcohol) 102 % of control; (dose: 28.0 mg/kg/injection, schedule: Q07DX002 (ip), vehicle: saline with Tween-80) 100 % of control; (dose: 50.0 mg/kg/injection, schedule: Q07DX002 (ip), vehicle: other) 63 % of control and 86 % of control; (dose: 56.0 mg/kg/injection, schedule: Q07DX002 (ip), vehicle: saline + Tween-80 + alcohol) 86 % of control. In addition, the T/C was 92 % of control and 93 % of control (dose: 56.0 mg/kg/injection, schedule: Q07DX002 (ip), vehicle: saline with Tween-80); 84 % of control (dose: 100.0 mg/kg/injection, schedule: Q07DX002 (ip), vehicle: other); 100 % of control (dose: 112.0 mg/kg/injection, schedule: Q07DX002 (ip), vehicle: saline with Tween-80).
As for `COc1cccc2c1C(CO)N1C(C#N)C3CC(C(=O)O)C(C1C2)N3C` (configuration not stated), the T/C reads like this: under setting [2], 71 % of control; under setting [3], 45 % of control; under setting [4], 108 % of control; (dose: 50.0 mg/kg/injection, schedule: Q07DX002 (ip), vehicle: saline) 80 % of control; (dose: 100.0 mg/kg/injection, schedule: Q07DX002 (ip), vehicle: saline) 66 % of control.
On to `CCC1CCCCN1C(=S)N/N=C(\C)c1ccccn1` (configuration not stated), for which the T/C (dose: 25.0 mg/kg/injection, schedule: Q07DX002 (ip), vehicle: saline with Tween-80) is 121 % of control.
With `CC[C@@]1(O)C(=O)OCc2c1cc1n(c2=O)Cc2cc3ccccc3nc2-1`, the T/C is 100 % of control (dose: 1.5 mg/kg/injection, schedule: Q07DX002 (ip), vehicle: saline with Tween-80); 92 % of control (dose: 3.0 mg/kg/injection, schedule: Q07DX002 (ip), vehicle: saline with Tween-80); 75 % of control (dose: 6.0 mg/kg/injection, schedule: Q07DX002 (ip), vehicle: saline with Tween-80); 90 % of control (dose: 12.0 mg/kg/injection, schedule: Q07DX002 (ip), vehicle: saline with Tween-80); 95 % of control (dose: 24.0 mg/kg/injection, schedule: Q07DX002 (ip), vehicle: saline with Tween-80).
For the compound `COC(=O)[C@@H]1c2cc3c(c(O)c2[C@@H](OC)C[C@@]1(C)O)C(=O)c1c(O)cc2c(c1C3=O)OC1O[C@@]2(C)[C@H](O)[C@@H](N(C)C)[C@@H]1O`, the T/C is 101 % of control under setting [2]; 115 % of control and 121 % of control under setting [3]; 124 % of control (dose: 12.5 mg/kg/injection, schedule: Q07DX003 (ip), vehicle: suspension in saline); 102 % of control under setting [4]; 114 % of control (dose: 50.0 mg/kg/injection, schedule: Q07DX003 (ip), vehicle: suspension in saline); 106 % of control (dose: 100.0 mg/kg/injection, schedule: Q07DX003 (ip), vehicle: suspension in saline). The T/C was 104 % of control (dose: 200.0 mg/kg/injection, schedule: Q07DX003 (ip), vehicle: suspension in saline) and 85 % of control (dose: 400.0 mg/kg/injection, schedule: Q07DX003 (ip), vehicle: suspension in saline).

For the origin of these results see PubChem BioAssay AID212 (DTP/NCI, 2004).
